Source: patent publication US9657018B2, “Antagonists acting at multiple prostaglandin receptors for the treatment of inflammation” (Allergan, Inc., priority 2014, dated 2017)
Structures can show the parent of a compound that is named as a salt.

Key:
Assay type in all cases: cell-based
[1] = molecular target: T1, human prostanoid EP1 receptor (Homo sapiens, UniProt P34995); experiment: FLIPR Ca2+ signaling antagonist assay, EP1 receptor stable cell line; conditions: human recombinant EP1 in HEK-293 EBNA cells; standard agonist PGE2; NA = no antagonism or Kb>=10,000 nM
T1 construct: expressed in transfected cells
T1 sequence (P34995 1-402): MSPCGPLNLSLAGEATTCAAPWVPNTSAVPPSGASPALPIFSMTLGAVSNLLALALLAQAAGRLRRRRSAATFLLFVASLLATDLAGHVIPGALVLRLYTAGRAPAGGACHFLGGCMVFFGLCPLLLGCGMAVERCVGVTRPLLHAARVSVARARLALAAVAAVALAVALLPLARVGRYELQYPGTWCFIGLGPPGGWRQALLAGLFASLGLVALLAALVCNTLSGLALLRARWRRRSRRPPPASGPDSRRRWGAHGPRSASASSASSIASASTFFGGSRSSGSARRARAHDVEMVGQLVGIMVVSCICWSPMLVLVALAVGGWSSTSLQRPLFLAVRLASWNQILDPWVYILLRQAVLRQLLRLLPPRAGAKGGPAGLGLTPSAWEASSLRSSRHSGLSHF
Description: (§1) The above compounds were tested for PG antagonist activity as follows using human recombinant prostanoid receptor (DP1, EP1-4, FP, IP and TP) stable cell lines:
(§2) In order to measure the response of Gs and Gi coupled prostanoid receptors as a Ca^2+ signal, chimeric G protein cDNAs were used. Stable cell lines over-expressing human prostanoid DP1, EP1-4, FP, IP, and TP receptors were established as follows:
(§3) Briefly, human prostanoid DP1, EP2, and EP4 receptor cDNAs were co-transfected with chimeric Gqs cDNA containing a haemagglutanin (HA) epitope; human prostanoid EP3 receptors were co-transfected with chimeric Gqi-HA; human EP1, FP, IP, and TP receptor cDNAs were expressed with no exogenous G-proteins. Gqs and Gqi chimeric cDNAs (Molecular Devices, Sunnyvale, Calif., U.S.A.), as well as cDNAs of prostanoid receptors, were cloned into a pCEP4 vector with a hygromycin B selection marker. Transfection into HEK-293 EBNA (Epstein-Barr virus nuclear antigen) cells was achieved by the FuGENE 6 transfection Reagent (Roche Applied Science, Indianapolis, Ind., USA). Stable transfectants were selected according to hygromycin resistance. Because Gqs and Gqi contained an HA epitope, G-protein expression was detected by Western blotting analysis using anti-mouse HA monoclonal antibody and horseradish peroxidase (HRP)-conjugated secondary antibody, while functional expression of prostanoid receptors was detected by FLIPR screening (Matias et al., 2004). These stable cell lines were validated using previously published antagonists at 10 μM against serial dilutions of standard agonists by FLIPR functional assays for Ca^2+ Signaling (as described below).
(§4) Ca^2+ signaling studies were performed using a FLIPR TETRA system (Molecular Devices, Sunnyvale, Calif., USA) in the 384-format. This is a high-throughput instrument for cell-based assays to monitor Ca^2+ signaling associated with GPCRs and ion channels. Cells were seeded at a density of 5×10^4 cells/well in BioCoat poly-D-lysine coated, black wall, clear bottom 384-well plates (BD Biosciences, Franklin lakes, NJ, USA) and allowed to attach overnight in an incubator at 37° C. The cells were then washed twice with HBSS-HEPES buffer (Hanks' balanced salt solution without bicarbonate and phenol red, 20 mM HEPES, pH 7.4) using an ELx405 Select CW Microplate Washer (BioTek, Winooski, Vt., USA). After 60 min of dye-loading in the dark using the Ca^2+-sensitive dye Fluo-4AM (Invitrogen, Carlsbad, Calif., USA), at a final concentration of 2×10^−6M, the plates were washed 4 times with HBSS-HEPES buffer to remove excess dye and leaving 50 μl of buffer in each well. The plates were then placed in the FLIPR TETRA instrument and allowed to equilibrate at 37° C. AGN-211377 was added in a 25 μl volume to each well to give final concentrations of 0.1 μl. M, 0.4M, 1 μM, 3 μl. M, 10 μl. M, and 30 μl. M; or 0.067 μM, 0.4M, 0.67 μM, and 1 μM for cells over-expressing TP receptors. After 4.5 minutes, a 7-point serial dilution of the standard agonist for the corresponding receptor, in a 25 μl volume was injected at the final concentrations from 10^−11M to 10^−5M in 10-fold serial dilution increments for cells expressing human recombinant DP1, EP1, EP2, EP3, EP4, FP, and IP receptors. The dose range for the standard agonist for human recombinant TP receptors was from 10^−12M to 10^−6M. HBSS-HEPES buffer was used as the negative control for the standard agonists. Cells were excited with LED (light emitting diode) excitation at 470-495 nm and emission was measured through an emission filter at 515-575 nm. Assay plates were read for 3.5 minutes using the FLIPR^TETRA. The peak increase in fluorescence intensity was recorded for each well. On each plate, negative controls, dose response of positive controls, and co-treatments of antagonist-agonist for each dose were in triplicates. Standard agonists were as follows: DP=BW 245C, EP1-EP4=PGE2, FP=17-phenyl-PGF2a, IP=Cicaprost, and TP=U-46619. […]

[2] = molecular target: T2, human prostanoid FP receptor (Homo sapiens, UniProt P43088); experiment: FLIPR Ca2+ signaling antagonist assay, FP receptor stable cell line; conditions: human recombinant FP in HEK-293 EBNA cells; standard agonist 17-phenyl-PGF2a; NA = no antagonism or Kb>=10,000 nM
T2 construct: expressed in transfected cells
Description: as §1, §2, §3, §4

[3] = molecular target: T3, human prostanoid EP3 receptor (Homo sapiens, UniProt P43115); experiment: FLIPR Ca2+ signaling antagonist assay, EP3 receptor stable cell line; conditions: human recombinant EP3 + chimeric Gqi in HEK-293 EBNA cells; standard agonist PGE2; NA = no antagonism or Kb>=10,000 nM
T3 construct: expressed in transfected cells
T3 sequence (P43115 1-390): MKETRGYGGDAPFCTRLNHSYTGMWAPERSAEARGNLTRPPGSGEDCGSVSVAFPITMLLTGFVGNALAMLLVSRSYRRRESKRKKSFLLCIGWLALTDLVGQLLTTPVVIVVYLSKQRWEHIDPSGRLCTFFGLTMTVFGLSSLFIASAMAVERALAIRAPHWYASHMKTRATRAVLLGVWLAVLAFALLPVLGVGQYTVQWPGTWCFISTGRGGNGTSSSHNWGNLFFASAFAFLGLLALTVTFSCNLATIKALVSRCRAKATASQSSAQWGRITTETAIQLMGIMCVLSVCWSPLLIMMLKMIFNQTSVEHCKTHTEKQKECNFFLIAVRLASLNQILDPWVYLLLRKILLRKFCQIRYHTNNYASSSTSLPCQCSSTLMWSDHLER
Description: as §1, §2, §3, §4

T2 sequence (P43088 whole entry): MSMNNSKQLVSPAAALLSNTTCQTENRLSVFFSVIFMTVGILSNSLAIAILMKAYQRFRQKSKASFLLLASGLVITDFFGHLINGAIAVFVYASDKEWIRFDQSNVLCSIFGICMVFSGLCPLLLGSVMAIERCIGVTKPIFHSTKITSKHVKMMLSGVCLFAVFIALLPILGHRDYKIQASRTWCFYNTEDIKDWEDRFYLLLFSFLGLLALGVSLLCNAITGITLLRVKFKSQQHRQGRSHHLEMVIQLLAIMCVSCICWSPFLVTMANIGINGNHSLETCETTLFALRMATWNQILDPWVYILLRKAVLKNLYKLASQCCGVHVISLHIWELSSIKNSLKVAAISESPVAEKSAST

SMILES | Kb [1] | Kb [2] | Kb [3]
CC(C)Cn1ncc2cc(Cl)cc(Cn3nc(N)c4cc(C(=O)O)ccc43)c21 [Compound 68, 3-Amino-1-[(5-chloro-1-isobutyl-indazol-7-yl)methyl]indazole-5-carboxylic acid] | > 10 µM | 0.035 µM | > 10 µM
CC(C)Cn1ncc2cc(Cl)cc(Cn3ncc4cc(C(=O)O)ccc43)c21 [Compound 41, 1-(5-Chloro-1-isobutyl-1H-indazol-7-ylmethyl)-1H-indazole-5-carboxylic acid] | 0.73 µM | 0.07 µM | > 10 µM
CC(C)Cn1ncc2cc(Cl)cc(Cn3cnc4cc(C(=O)O)cnc43)c21 [Compound 51, 3-(5-Chloro-1-isobutyl-1H-indazol-7-ylmethyl)-3H-imidazo[4,5-b]pyridine-6-carboxylic acid] | > 10 µM | 4.9 µM | > 10 µM
CC(C)Cn1ncc2cc(C(F)(F)F)cc(Cn3cnc4cc(C(=O)O)ccc43)c21 [Compound 55, 1-(1-Isobutyl-5-trifluoromethyl-1H-indazol-7-ylmethyl)-1H-benzoimidazole-5-carboxylic acid] | 4 µM | 3 µM | > 10 µM
CC(C)n1ncc2cc(Br)cc(Cn3ncc4cc(C(=O)O)ccc43)c21 [Compound 46, 1-(5-Bromo-1-isopropyl-1H-indazol-7-ylmethyl)-1H-indazole-5-carboxylic acid] | 3 µM | 0.2 µM | > 10 µM
CC(C)Cn1ncc2cc(Cl)cc(Cn3ccc4cc(C(=O)O)cnc43)c21 [Compound 52, 1-(5-Chloro-1-isobutyl-1H-indazol-7-ylmethyl)-1H-pyrrolo[2,3-b]pyridine-5-carboxylic acid] | 0.6 µM | 0.7 µM | 3.4 µM
CC(C)Cn1ncc2cc(F)cc(Cn3ncc4cc(C(=O)O)ccc43)c21 [Compound 43, 1-(5-Fluoro-1-isobutyl-1H-indazol-7-ylmethyl)-1H-indazole-5-carboxylic acid] | > 10 µM | 0.7 µM | > 10 µM
CC(C)Cn1ncc2cc(Cl)cc(Cn3cnc4cc(C(=O)O)ccc43)c21 [Compound 50, 1-(5-Chloro-1-isobutyl-1H-indazol-7-ylmethyl)-1H-benzoimidazole-5-carboxylic acid] | > 10 µM | > 10 µM | > 10 µM
CC(C)Cn1ncc2cc(C(F)(F)F)cc(Cn3ncc4cc(C(=O)O)ccc43)c21 [Compound 44, 1-(1-Isobutyl-5-trifluoromethyl-1H-indazol-7-ylmethyl)-1H-indazole-5-carboxylic acid] | 1.5 µM | 0.15 µM | > 10 µM
CC(C)Cn1ncc2cc(Br)cc(Cn3ncc4cc(C(=O)O)ccc43)c21 [Compound 42, 1-(5-Bromo-1-isobutyl-1H-indazol-7-ylmethyl)-1H-indazole-5-carboxylic acid] | 2.3 µM | 0.04 µM | > 10 µM
CCC(CC)Cn1ncc2cc(Br)cc(Cn3ncc4cc(C(=O)O)ccc43)c21 [Compound 47, 1-[5-Bromo-1-(2-ethyl-butyl)-1H-indazol-7-ylmethyl]-1H-indazole-5-carboxylic acid] | 0.5 µM | 3 µM | > 10 µM
CC(C)Cn1ncc2cc(OC(F)(F)F)cc(Cn3ncc4cc(C(=O)O)ccc43)c21 [Compound 45, 1-(1-Isobutyl-5-trifluoromethoxy-1H-indazol-7-ylmethyl)-1H-indazole-5-carboxylic acid] | 0.8 µM | 0.08 µM | > 10 µM
Cc1nn(Cc2cc(Br)cc3cnn(CC(C)C)c23)c2ncc(C(=O)O)cc12 [Compound 54, 1-(5-Bromo-1-isobutyl-1H-indazol-7-ylmethyl)-3-methyl-1H-pyrazolo[3,4-b]pyridine-5-carboxylic HCl salt] | > 10 µM | 0.6 µM | > 10 µM
CC(C)Cn1ncc2cc(Cl)cc(Cn3ncc4cc(C(=O)O)cnc43)c21 [Compound 49, 1-(5-Chloro-1-isobutyl-1H-indazol-7-ylmethyl)-1H-pyrazolo[3,4-b]pyridine-5-carboxylic acid] | 9.8 µM | 1.9 µM | > 10 µM
CNc1nn(Cc2cc(Cl)cc3cnn(CC(C)C)c23)c2ccc(C(=O)O)cc12 [Compound 70, 1-[(5-Chloro-1-isobutyl-indazol-7-yl)methyl]-3-(methylamino)indazole-5-carboxylic acid] | 2.3 µM | 0.017 µM | 8.1 µM
CC(C)Cn1ncc2cc(Cl)cc(Cc3ncc4cc(C(=O)O)ccn34)c21 [Compound 61, 3-[(5-Chloro-1-isobutyl-indazol-7-yl)methyl]imidazo[1,5-a]pyridine-7-carboxylic acid] | > 10 µM | 0.6 µM | > 10 µM
Cc1nn(Cc2cc(Br)cc3cnn(CC(C)C)c23)c2ccc(C(=O)O)cc12 [Compound 53, 1-(5-Bromo-1-isobutyl-1H-indazol-7-ylmethyl)-3-methyl-1H-indazole-5-carboxylic acid] | 5.7 µM | 0.07 µM | > 10 µM
CC(C)Cn1ncc2cc(OC(F)(F)F)cc(Cn3cnc4cc(C(=O)O)ccc43)c21 [Compound 56, 1-(1-Isobutyl-5-trifluoromethoxy-1H-indazol-7-ylmethyl)-1H-benzoimidazole-5-carboxylic acid] | 9 µM | > 10 µM | > 10 µM
CCCn1ncc2cc(Cl)cc(Cn3ncc4cc(C(=O)O)ccc43)c21 [Compound 48] | > 10 µM | 0.5 µM | > 10 µM
